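Five concentrations, 48 hours, 96-well plates. Here, GI50 denotes the concentration required for 50% inhibition of growth.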 The source made the active and inactive calls. Cut-off read from the data, not from the text of the source: active = GI50 up to about 1.1 µM and inactive = higher.
Legend:
Experiment in all cases: growth of human tumour cells (NCI), 48 h
RXF 393 = test system: RXF 393
MDA-MB-231 = test system: MDA-MB-231
SK-MEL-28 = test system: SK-MEL-28
SF-295 = test system: SF-295
OVCAR-5 = test system: OVCAR-5
SK-OV-3 = test system: SK-OV-3
SNB-19 = test system: SNB-19
TK-10 = test system: TK-10
MDA-MB-435 = test system: MDA-MB-435
Hs-578T = test system: Hs-578T
U-251 = test system: U-251
UO-31 = test system: UO-31
SK-MEL-2 = test system: SK-MEL-2
SN12C = test system: SN12C
NCI-H23 = test system: NCI-H23
K562 = test system: K562
HT-29 = test system: HT-29
NCI-H522 = test system: NCI-H522
SK-MEL-5 = test system: SK-MEL-5
Malme-3M = test system: Malme-3M

Row | SMILES | GI50 (RXF 393) | GI50 (MDA-MB-231) | GI50 (SK-MEL-28) | GI50 (SF-295) | GI50 (OVCAR-5) | GI50 (SK-OV-3) | GI50 (SNB-19) | GI50 (TK-10) | GI50 (MDA-MB-435) | GI50 (Hs-578T) | GI50 (U-251) | GI50 (UO-31) | GI50 (SK-MEL-2) | GI50 (SN12C) | GI50 (NCI-H23) | GI50 (K562) | GI50 (HT-29) | GI50 (NCI-H522) | GI50 (SK-MEL-5) | GI50 (Malme-3M)
1 | Cc1sc(N)c(S(=O)(=O)c2ccccc2)c1C | > 100 µM (inactive) | > 100 µM (inactive) | > 100 µM (inactive) | > 100 µM (inactive) | > 100 µM (inactive) | > 100 µM (inactive) | > 100 µM (inactive) | > 100 µM (inactive) | > 100 µM (inactive) | > 100 µM (inactive) | > 100 µM (inactive) | > 100 µM (inactive) | > 100 µM (inactive) | > 100 µM (inactive) | > 100 µM (inactive) | > 100 µM (inactive) | > 100 µM (inactive) | > 100 µM (inactive) | > 100 µM (inactive) | > 100 µM (inactive)
2 | C/C(=N\NC(=S)N1CCN(c2ccccn2)CC1)c1cccc(C)n1 | 1.32 µM (inactive) | < 0.01 µM (active) | 7.1 µM (inactive) | 2.9 µM (inactive) | 4.03 µM (inactive) | 8.65 µM (inactive) | 7.26 µM (inactive) | 7.78 µM (inactive) | 3.61 µM (inactive) | 12.6 µM (inactive) | < 0.01 µM (active) | 9.14 µM (inactive) | 2.15 µM (inactive) | 7.98 µM (inactive) | 5.58 µM (inactive) | 0.585 µM (active) | < 0.01 µM (active) | 0.0421 µM (active) | 1.53 µM (inactive) | 2.59 µM (inactive)
3 | CCCC(=O)Nc1cc(/C=C/C(=O)N2CC(CCl)c3c2cc(OCc2ccccc2)c2[nH]cc(C)c32)n(C)c1 (centres undefined) | 0.0383 µM (active) | 0.247 µM (active) | 0.215 µM (active) | 0.0317 µM (active) | 0.151 µM (active) | 0.199 µM (active) | 0.337 µM (active) | 0.533 µM (active) | 0.251 µM (active) | 0.14 µM (active) | 0.0513 µM (active) | 0.0493 µM (active) | 0.074 µM (active) | 0.186 µM (active) | 0.0139 µM (active) | 0.0373 µM (active) | 0.0687 µM (active) | 0.00849 µM (active) | 0.02 µM (active) | 0.0916 µM (active)
4 | COc1cc(N/N=C/C#N)cc(OC)c1OC | > 10 µM (inactive) | > 10 µM (inactive) | > 10 µM (inactive) | > 10 µM (inactive) | > 10 µM (inactive) | > 10 µM (inactive) | > 10 µM (inactive) | > 10 µM (inactive) | > 10 µM (inactive) | > 10 µM (inactive) | > 10 µM (inactive) | > 10 µM (inactive) | > 10 µM (inactive) | > 10 µM (inactive) | 4.34 µM (inactive) | 2.44 µM (inactive) | > 10 µM (inactive) | 1.01 µM (active) | > 10 µM (inactive) | 7.55 µM (inactive)
5 | COc1ccc2c(c1)CCc1cc(OC)ccc1/[N+]([O-])=[N+]\2[O-] | 2.86 µM (inactive) | 18.7 µM (inactive) | 18.7 µM (inactive) | 19.9 µM (inactive) | 23.2 µM (inactive) | 18.7 µM (inactive) | 21.6 µM (inactive) | 22.4 µM (inactive) | 16.3 µM (inactive) | 25.1 µM (inactive) | 17.6 µM (inactive) | 9.08 µM (inactive) | 20.9 µM (inactive) | 16.2 µM (inactive) | 23.1 µM (inactive) | 8.91 µM (inactive) | 19.6 µM (inactive) | 5.93 µM (inactive) | 16.3 µM (inactive) | 19.5 µM (inactive)
6 | CC1(C)CCC2(C(=O)O)C(O)CC3(C)C(=CCC4C5(C)CCC(OC6OCC(O)C(O)C6OC6OCC(O)C(O)C6OC6OCC(O)C(OC7OC(CO)C(O)C(O)C7O)C6O)C(C)(C)C5CCC43C)C2C1 (centres undefined) | 20 µM (inactive) | > 100 µM (inactive) | 36.5 µM (inactive) | 20.3 µM (inactive) | 33.8 µM (inactive) | 19.8 µM (inactive) | 20 µM (inactive) | > 100 µM (inactive) | 28.4 µM (inactive) | 28.1 µM (inactive) | 33.7 µM (inactive) | 17.3 µM (inactive) | 24.5 µM (inactive) | 23.3 µM (inactive) | 21 µM (inactive) | 25.6 µM (inactive) | > 100 µM (inactive) | 19.8 µM (inactive) | > 100 µM (inactive) | 27.2 µM (inactive)
7 | COC(=O)C1=C(C(=O)OC)C(N(C)C)C(C(=O)OC)=C(C(=O)OC)S1 | > 100 µM (inactive) | > 100 µM (inactive) | > 100 µM (inactive) | > 100 µM (inactive) | > 100 µM (inactive) | > 100 µM (inactive) | > 100 µM (inactive) | > 100 µM (inactive) | > 100 µM (inactive) | > 100 µM (inactive) | > 100 µM (inactive) | > 100 µM (inactive) | > 100 µM (inactive) | > 100 µM (inactive) | > 100 µM (inactive) | > 100 µM (inactive) | – | – | – | –
8 | Cc1ccc(S(=O)(=O)N/N=C/c2c(O)ccc3ccccc23)cc1 | 19.4 µM (inactive) | 21.9 µM (inactive) | 35.5 µM (inactive) | 16.2 µM (inactive) | 29.6 µM (inactive) | 7.87 µM (inactive) | 41.1 µM (inactive) | 45.8 µM (inactive) | 23.7 µM (inactive) | 17.5 µM (inactive) | 27.6 µM (inactive) | 53.7 µM (inactive) | 20.8 µM (inactive) | 31.1 µM (inactive) | 30.5 µM (inactive) | 18.3 µM (inactive) | 32.9 µM (inactive) | 17 µM (inactive) | 31.8 µM (inactive) | 24.3 µM (inactive)
9 | COC(=O)c1ccc2c(c1)CCN2C(=O)c1cc2c(cc1Br)OCO2 | 0.863 µM (active) | 1.65 µM (inactive) | 11 µM (inactive) | 0.565 µM (active) | > 50 µM (inactive) | 3.05 µM (inactive) | 0.439 µM (active) | 2 µM (inactive) | 0.151 µM (active) | 0.658 µM (active) | 0.822 µM (active) | 2.01 µM (inactive) | 0.723 µM (active) | 1.81 µM (inactive) | 1.44 µM (inactive) | 0.19 µM (active) | 0.373 µM (active) | 0.119 µM (active) | 0.167 µM (active) | 0.231 µM (active)
10 | COc1cc(Nc2nc3ccc(C(F)(F)F)cc3nc2C(=O)O)cc(OC)c1OC | 25.2 µM (inactive) | 19.2 µM (inactive) | 26.8 µM (inactive) | 27.1 µM (inactive) | 36.1 µM (inactive) | 29.2 µM (inactive) | 29.9 µM (inactive) | 22.8 µM (inactive) | 24.3 µM (inactive) | 16.9 µM (inactive) | 19 µM (inactive) | 19.7 µM (inactive) | 21.8 µM (inactive) | 14.4 µM (inactive) | 27.8 µM (inactive) | 17.9 µM (inactive) | 27 µM (inactive) | 21.4 µM (inactive) | 34.4 µM (inactive) | 27.1 µM (inactive)
11 | COc1ccc2cc(/C=N/NC(=O)Nc3ccccc3)ccc2c1 | > 10 µM (inactive) | 81.3 µM (inactive) | > 10 µM (inactive) | > 100 µM (inactive) | > 100 µM (inactive) | > 100 µM (inactive) | > 100 µM (inactive) | > 100 µM (inactive) | > 100 µM (inactive) | > 100 µM (inactive) | > 100 µM (inactive) | > 100 µM (inactive) | > 100 µM (inactive) | > 100 µM (inactive) | > 100 µM (inactive) | > 100 µM (inactive) | > 100 µM (inactive) | – | > 100 µM (inactive) | > 100 µM (inactive)
12 | CCOC(=O)/C(=N/Nc1ccc(Cl)cc1)N1C(=S)N(C)N=C(C)C=C1S | 11.7 µM (inactive) | 29 µM (inactive) | > 100 µM (inactive) | 20.5 µM (inactive) | > 100 µM (inactive) | 40.3 µM (inactive) | 34.6 µM (inactive) | 30.5 µM (inactive) | > 100 µM (inactive) | 37.1 µM (inactive) | 15.9 µM (inactive) | > 100 µM (inactive) | 57.7 µM (inactive) | 29.6 µM (inactive) | 39 µM (inactive) | > 100 µM (inactive) | > 100 µM (inactive) | 22.1 µM (inactive) | > 100 µM (inactive) | –
13 | CN(C)CCCCN1CCc2c(n(C)c3ccccc23)C1=O | 42.1 µM (inactive) | 29.5 µM (inactive) | 16.7 µM (inactive) | 25.9 µM (inactive) | – | > 63.7 µM (inactive) | > 74 µM (inactive) | – | 18.5 µM (inactive) | 33 µM (inactive) | – | 30.9 µM (inactive) | 20 µM (inactive) | 42 µM (inactive) | 54.2 µM (inactive) | 26.2 µM (inactive) | 18.7 µM (inactive) | 33.3 µM (inactive) | 17.7 µM (inactive) | 19.2 µM (inactive)
14 | Cc1ccc(-c2c(C#N)c(-c3ccc([N+](=O)[O-])cc3)c(C#N)c(=O)n2NS(=O)(=O)c2ccccc2)cc1 | 29.4 µM (inactive) | 38.7 µM (inactive) | 36.3 µM (inactive) | 27.8 µM (inactive) | 64.4 µM (inactive) | 22.4 µM (inactive) | 42.6 µM (inactive) | 41.3 µM (inactive) | 54.5 µM (inactive) | 0.589 µM (active) | 40.3 µM (inactive) | – | 44 µM (inactive) | 96.2 µM (inactive) | – | 39.3 µM (inactive) | 41.8 µM (inactive) | 28.6 µM (inactive) | 12.1 µM (inactive) | 29.9 µM (inactive)
